The subject of the experiment is temozolomide-resistant EGFRvIII/Arfko GBM (NSCG) cells. Briefly: Survival of mice after intracranial injection of NSCG tumors. Format: in vivo, FVBN mice. The settings on record: ABDNAZ 10 mg/kg intraperitoneal, temozolomide 40 mg/kg oral gavage. The method, then:
Mice implanted with temozolomide-resistant EGFRvIII/Arfko GBM (NSCG) cells were treated with (i) ABDNAZ (RRx-001, 10 mg/kg, intraperitoneal injection), (ii) temozolomide (TMZ)(40 mg/kg, oral gavage), or (iii) ABDNAZ (10 mg/kg, intraperitoneal injection) and temozolomide (40 mg/kg, oral gavage).
NSCG tumors were intracranially injected into FVBN mice. Mice to be treated were treated with one of the following (i) ABDNAZ (10 mg/kg, intraperitoneal injection), (ii) temozolomide (40 mg/kg, oral gavage), or (iii) ABDNAZ (10 mg/kg, intraperitoneal injection) and temozolomide (40 mg/kg, oral gavage). In a first experiment, treatment (i.e., administration of ABDNAZ (RRx-001), temozolomide (TMZ), or both ABDNAZ and temozolomide) was started five days after intracranial injection of NSCG cells. The control population of mice contained ten mice, the group receiving only ABDNAZ had twelve mice, the group receiving only temozolomide had twelve mice, and the group receiving both ABDNAZ and temozolomide had sixteen mice. Mouse survival was monitored over time.
In a second experiment, treatment (i.e., administration of ABDNAZ (RRx-001), temozolomide (TMZ), or both ABDNAZ and temozolomide) was started ten days after intracranial injection of NSCG cells. The control population of mice contained three mice, the group receiving only ABDNAZ had five mice, the group receiving only temozolomide had four mice, and the group receiving both ABDNAZ and temozolomide had six mice. Mouse survival was monitored over time.

Setting [1] is: treatment started five days after intracranial injection of NSCG cells, control 22.2.
Where [2] appears, read: treatment started ten days after intracranial injection of NSCG cells, control 22.1.

The results in this text go back to patent US10543208B2, “Treatment of gliomas using organonitro compound combination therapy” (priority 2015, dated 2020).

Consider `O=C(CBr)N1CC([N+](=O)[O-])([N+](=O)[O-])C1` [ABDNAZ], for which the “Median Survival Time” value is on record as 25.3 days under setting [1] and 22.5 days under setting [2].
Regarding `Cn1nnc2c(C(N)=O)ncn2c1=O` [TMZ, 3,4-dihydro-3-methyl-4-oxoimidazo[5,1-d]-as-tetrazine-8-carboxamide], the “Median Survival Time” value is, setting by setting: under setting [1], 22.3 days; under setting [2], 22.3 days.
